“Also recorded” adds a separate entry of the source.
Columns and labels:
Amyloid A = test: Study DG-031-201: amyloid A in serum; assay type: in vivo, human; conditions: difference visit 2 to 5; 500 and 750 mg/day vs placebo
Experimental: Genet. 2004). Apart from FLAP, allele A of the SNP SG12S25 in the LTA4 hydrolase gene, another gene in the LT pathway, is also associated with MI, as described in PCT application no. PCT/US03/32556 and PCT/US04/30582 incorporated by reference.
Patients who met the study eligibility criteria were enrolled and randomized into 3 different dose-level groups: (1) 64 patients on 250 mg/day therapy with DG-031 (250 mg q.d.), vs placebo; (2) 64 patients on 500 mg/day therapy with DG-031 (250 mg b.i.d.) vs placebo; and (3) 63 patients on 750 mg/day therapy with DG-031 (250 mg t.i.d.) vs placebo. […] All patients received 3 tablets per day. Treatment periods, 4 weeks in duration each, were separated by a 2-week washout period. The placebo tablets were identical in shape, color, form and taste to the active tablets except that they contained no active drug ingredients. Treatment with DG-031 or placebo was in addition to the subject's standard care, including all medications and treatment plan as prescribed by the subject's cardiologist prior to enrolment. […]
All data were analyzed according to a pre-established statistical analysis plan (SAP) and by intention-to-treat (ITT). […] The difference between DG-031 and placebo treatment was the primary outcome, assessed separately for each of the biomarkers. […]

[1] = Study DG-031-204: adverse events; assay type: in vivo; conditions: for SAE Description: single patients
Experimental: An additional single site, open label study was carried out to obtain biomarker and safety data on additional DG-031 doses (i.e., 1000 mg and 1500 mg). This study examined the safety, tolerability and dose-related effects of DG-031 on inflammatory biomarkers including: LTB4, hsCRP, and MPO. A total of 119 patients with a prior history of CAD and MI were randomized to receive either 1000 mg DG-031 (500 mg BID) or 1500 mg DG-031 (500 mg TID) daily for 4-6 weeks. Treatment with DG-031 in addition to the subject's standard care, medication, and treatment, was prescribed by the patient's cardiologist. A majority of the subjects received statin therapy before, during and after the study. Follow-up assessments were performed 2 weeks after the end of study drug administration.
A total of 5 patients reported 8 serious adverse events (SAE). One death was reported during the trial. All SAE's were consistent with underlying CAD disorders (see Table 16). A total of 88 of 119 patients reported 203 adverse events. The most commonly reported adverse events (and number of cases reported) included: cold (27), headache (13), constipation/diarrhea (6/8), and vertigo (5).

[2] = 119 patients, 500 mg BID or TID, 4-6 weeks

O=C(O)[C@@H](c1ccc(OCc2ccc3ccccc3n2)cc1)C1CCCC1 [DG-031, (R)-(+)-alpha-cyclopentyl-4-(2-quinolinylmethoxy)-Benzeneacetic acid]
Carry-over effect, Amyloid A (Amyloid A): −0.14
SAE Description ([1]; 1000 mg treatment): Cardiac arrest,; also recorded: Subarachnoid hemorrhage; also recorded: Angiography,; also recorded: Repair of Carotid artery; also recorded: Myocardial infarction; also recorded: Unstable angina; also recorded: Myocardial infarction,
SAE Description ([1]; 1500 mg treatment): Congestive heart failure
Adverse events reported ([1]; 119 patients): 203
Cases of cold ([1]; 119 patients): 27
Cases of constipation ([1]; 119 patients): 6
Cases of diarrhea ([1]; 119 patients): 8
Cases of headache ([1]; 119 patients): 13
Cases of vertigo ([1]; 119 patients): 5
Deaths reported during the trial ([1]; 119 patients, 500 mg BID or TID): One
Patients reporting serious adverse events [1, 2]: 5
Serious adverse events (SAE) reported [1, 2]: 8
Patients reporting adverse events ([1]; of 119 patients): 88
